As a reminder, the GI50 is the concentration at which growth is held to half of that of the control. For orientation: IC50 means the midpoint of a concentration-inhibition curve.

The subject of one data set is LOX IMVI. The data set is described as follows: Anticancer activity against human LOX IMVI cells assessed as cell growth inhibition by sulforhodamine B assay. Type of data set: functional. On the technique in general: In SRB staining, fixed cells bind dye roughly in proportion to their protein.
Another data set has as its system SK-MEL-2. As to the kind of experiment: Anticancer activity against human SK-MEL-2 cells assessed as cell growth inhibition by sulforhodamine B assay. Type of data set: functional.
For the next data set, the system named is SK-MEL-5. The data set is described as follows: Anticancer activity against human SK-MEL-5 cells assessed as cell growth inhibition by sulforhodamine B assay. It counts as functional.
A further data set concerns UACC-257. As to the kind of experiment: Anticancer activity against human UACC-257 cells assessed as cell growth inhibition by sulforhodamine B assay. It counts as functional.
For a further data set, the system named is HOP-92. As to the kind of experiment: Anticancer activity against human HOP-92 cells assessed as cell growth inhibition by sulforhodamine B assay. It counts as functional.
The subject of data set [1] is Hep 3B2. As to the kind of experiment: Antiproliferative activity against human Hep3B cells assessed as reduction in cell viability incubated for 48 hrs by MTT assay. Type of data set: functional, cell-based. Background: Tetrazolium dyes change colour on reduction, which living cells bring about.
Data set [2] concerns SMMC-7721. As to the kind of experiment: Antiproliferative activity against human SMMC-7721 cells assessed as reduction in cell viability incubated for 48 hrs by MTT assay. It counts as functional, cell-based. Conditions: SMMC-7721, 48 h.
Data set [3] deals with MCF7. The data set is described as follows: Antiproliferative activity against human MCF7 cells assessed as reduction in cell viability incubated for 48 hrs by MTT assay. It counts as functional, cell-based. Conditions: MCF7, 48 h.
The test system of data set [4] is HCT-8. The data set is described as follows: Antiproliferative activity against human HCT-8 cells assessed as reduction in cell viability incubated for 48 hrs by MTT assay. Type of data set: functional, cell-based. To be noted: HCT-8, 48 h.
Data set [5] can be described thus: Cytotoxicity against mouse BMSC cells assessed as reduction in cell viability incubated for 48 hrs by MTT assay. Type of data set: toxicity, cell-based.
The next data set deals with SW48. As to the kind of experiment: Anticancer activity against human SW48 cells assessed as reduction in cell viability by MTT assay. Type of data set: functional, cell-based.
A further data set deals with A2780. The data set is described as follows: Anticancer activity against human cisplatin resistant A2780 cells assessed as reduction in cell viability by MTT assay. It counts as functional, cell-based.
The subject of data set [6] is SMMC-7721. As to the kind of experiment: Antitumor activity against human SMMC-7721 cells assessed as reduction in cell viability by MTT assay. It counts as functional, cell-based.
Data set [7] deals with L1210. As to the kind of experiment: Antitumor activity against mouse L1210 cells assessed as reduction in cell viability by MTT assay. Type of data set: functional, cell-based.
The test system of data set [8] is HL-60. The data set is described as follows: Antitumor activity against human HL-60 cells assessed as reduction in cell viability by MTT assay. Type of data set: functional, cell-based.
Data set [9] has as its system Hep 3B2. The data set is described as follows: Antitumor activity against human Hep3B cells assessed as reduction in cell viability by MTT assay. It counts as functional, cell-based.
Data set [10] deals with CAPAN-1. As to the kind of experiment: Antitumor activity against human CAPAN-1 cells assessed as reduction in cell viability by MTT assay. It counts as functional, cell-based.
The subject of data set [11] is HL-60. As to the kind of experiment: Anticancer activity against human HL-60 cells assessed as reduction in cell viability incubated for 24 hrs by MTT assay. Conditions: HL-60, 24 h. It counts as functional, cell-based.
The test system of data set [12] is HL-60. As to the kind of experiment: Anticancer activity against human HL-60 cells assessed as reduction in cell viability incubated for 48 hrs by MTT assay. It counts as functional, cell-based. Conditions: HL-60, 48 h.
A further data set deals with Huh-7. As to the kind of experiment: Anticancer activity against human Huh-7 cells assessed as reduction in cell viability incubated for 24 hrs by MTT assay. Type of data set: functional, cell-based. To be noted: Huh-7, 24 h.
Data set [13] concerns SMMC-7721. As to the kind of experiment: Antiproliferative activity against human SMMC-7721 cells assessed as reduction in cell viability incubated for 24 hrs by MTT assay. Type of data set: functional, cell-based. Conditions: SMMC-7721, 24 h.
In data set [14] the test system is MCF7. The data set is described as follows: Antiproliferative activity against human MCF7 cells assessed as reduction in cell viability incubated for 24 hrs by MTT assay. It counts as functional, cell-based. To be noted: MCF7, 24 h.
For data set [15], the system named is HCT-8. The data set is described as follows: Antiproliferative activity against human HCT-8 cells assessed as reduction in cell viability incubated for 24 hrs by MTT assay. Type of data set: functional, cell-based. To be noted: HCT-8, 24 h.
The test system of data set [16] is A549. As to the kind of experiment: Anticancer activity against human A549 cells assessed as reduction in cell viability by MTT assay. Type of data set: functional, cell-based.
Data set [17] concerns L1210. The data set is described as follows: Antiproliferative activity against mouse L1210 cells assessed as reduction in cell viability incubated for 48 hrs by MTT assay. Type of data set: functional, cell-based. To be noted: L1210, 48 h.
A further data set relates to PANC-1. The data set is described as follows: Antiproliferative activity against human PANC-1 cells assessed as reduction in cell viability incubated for 24 to 72 hrs by MTT assay. It counts as functional, cell-based.
In data set [18] the test system is CAPAN-1. The data set is described as follows: Antiproliferative activity against human CAPAN-1 cells assessed as reduction in cell viability incubated for 24 to 72 hrs by MTT assay. It counts as functional, cell-based.
In a further data set the test system is SW-620. As to the kind of experiment: Antiproliferative activity against human SW620 cells assessed as inhibition of cell proliferation by CCK-8 assay. It counts as functional, cell-based.
The next data set concerns MGC-803. As to the kind of experiment: Antiproliferative activity against human MGC-803 cells assessed as inhibition of cell proliferation by CCK-8 assay. Type of data set: functional, cell-based.
Data set [19] relates to PC-3. As to the kind of experiment: Antiproliferative activity against human PC-3 cells assessed as inhibition of cell proliferation by CCK-8 assay. Type of data set: functional, cell-based.
Another data set relates to NCI-H460. The data set is described as follows: Antiproliferative activity against human NCI-H460 cells assessed as inhibition of cell proliferation by CCK-8 assay. Type of data set: functional, cell-based.
The test system of data set [20] is MCF7. The data set is described as follows: Antiproliferative activity against human MCF7 cells assessed as inhibition of cell proliferation by CCK-8 assay. Type of data set: functional, cell-based.
The test system of data set [21] is HepG2. As to the kind of experiment: Antiproliferative activity against human HepG2 cells assessed as inhibition of cell proliferation by CCK-8 assay. Type of data set: functional, cell-based.
Data set [22] concerns A549. The data set is described as follows: Antitumor activity against human A549 cells assessed as reduction in cell viability incubated for 72 hrs by MTT assay. Type of data set: functional, cell-based. Conditions: A549, 72 h.
The subject of data set [23] is HepG2. The data set is described as follows: Antitumor activity against human HepG2 cells assessed as reduction in cell viability incubated for 72 hrs by MTT assay. It counts as functional, cell-based. To be noted: HepG2, 72 h.
The test system of data set [24] is MCF7. As to the kind of experiment: Antitumor activity against human MCF7 cells assessed as reduction in cell viability incubated for 72 hrs by MTT assay. Type of data set: functional, cell-based. Conditions: MCF7, 72 h.
Data set [25] relates to PC-3. As to the kind of experiment: Antitumor activity against human PC-3 cells assessed as reduction in cell viability incubated for 72 hrs by MTT assay. Type of data set: functional, cell-based. Conditions: PC-3, 72 h.
In the next data set the test system is HeLa. The data set is described as follows: Antitumor activity against human HeLa cells assessed as reduction in cell viability incubated for 72 hrs by MTT assay. Type of data set: functional, cell-based.
Data set [26] deals with HL-60. The data set is described as follows: Antiproliferative activity against human HL-60 cells assessed as reduction in cell viability incubated for 48 hrs by MTT assay. Type of data set: functional, cell-based. Conditions: HL-60, 48 h.

Turning to `COc1ncnc(NS(=O)(=O)c2ccc(/N=C3\C(=O)N(CN4CCN(c5c(F)cc6c(=O)c(C(=O)O)cn(C7CC7)c6c5OC)CC4C)c4ccc(Br)cc43)cc2)c1OC` (stereo not given), the GI50 in the data set with LOX IMVI is under 10 µM; in the data set with SK-MEL-2, under 10 µM; in the data set on SK-MEL-5, under 10 µM; with UACC-257, under 10 µM; in the data set with HOP-92 it was 0.176 µM.
For `COc1cc(/C=N/NC(=O)c2cn3c4c(c(N5CCN(C)CC5)c(F)cc4c2=O)OC[C@@H]3C)cc(OC)c1OC`, the IC50 in the data set on Hep 3B2 [1], in the data set with SMMC-7721 [2], with MCF7 [3] and with HCT-8 [4] was 2.21 µM each time. Further, the IC50 at 48 h in [5] came out at 7.46 µM.
`C[C@H]1COc2c(Nc3ccc(-n4c(=O)[nH][nH]c4=O)cc3)c(F)cc3c(=O)c(C(=O)O)cn1c23`: the IC50 in the data set with SW48 and in the data set with A2780 was at most 43 µM throughout.
For `COc1ccc(-c2csc3nc(-c4cn5c6c(c(N7CCN(C)CC7)c(F)cc6c4=O)OCC5C)nn23)cc1` (stereo not given), the IC50 in the data set with SMMC-7721 [6], in the data set on L1210 [7], with HL-60 [8], with Hep 3B2 [9] and in the data set on CAPAN-1 [10] was 26.7 µM each time.
Take `COc1ccc2cc3[n+](cc2c1OC(=O)c1cn(C2CC2)c2cc(N4CCNCC4)c(F)cc2c1=O)CCc1cc2c(cc1-3)OCO2`: the IC50 with HL-60 [11] came out at 19.3 µM; in the data set on HL-60 [12], 15.7 µM.
On to `Nc1nnc(-c2cn(C3CC3)c3cc(N4CCNCC4)c(F)cc3c2=O)s1`, for which the IC50 in the data set on Huh-7 was found to be 25.8 µM.
Take `O=C(N/N=C/c1ccc2c(c1)OCO2)c1cn(C2CC2)c2cc(N3CCNCC3)c(F)cc2c1=O`: the IC50 with SMMC-7721 [13], with MCF7 [14] and with HCT-8 [15] was 2.9 µM each time.
Consider `C[C@H]1COc2c(Nn3c(=O)[nH][nH]c3=O)c(F)cc3c(=O)c(C(=O)O)cn1c23`, for which the IC50 with A549 [16] was 34.5 µM.
For `C[C@H]1COc2c(N3CCN(C)CC3)c(F)cc3c(=O)c(-c4nn5c(-c6cn(C7CC7)c7cc(N8CCNCC8)c(F)cc7c6=O)nnc5s4)cn1c23`, the IC50 in the data set on L1210 [17] was 1.5 µM.
As to `CN1CCN(c2cc3c(cc2F)c(=O)c(/C=C2\CN(C4CC4)c4cc(N5CCNCC5)c(F)cc4C2=O)cn3C2CC2)CC1`, the IC50 with PANC-1 was 3.1 µM; in the data set on CAPAN-1 [18] it was 1.6 µM.
On to `C[C@H]1COc2c(N3CCN(C)CC3)c(F)cc3c(=O)c(-c4nnc(NC(=O)CCCCCCC(=O)NO)s4)cn1c23`, for which the IC50 in the data set on SW-620, in the data set on MGC-803, with PC-3 [19], with NCI-H460, in the data set on MCF7 [20] and in the data set on HepG2 [21] was 0.6 µM throughout.
For the compound `C[C@H]1COc2c(N3CCN(C)CC3)c(F)cc3c(=O)c(C(=O)NCc4cn(CCCCCCC(=O)NO)nn4)cn1c23`, the 50% inhibitory concentration (IC50) in the data set on A549 [22], in the data set on HepG2 [23], with MCF7 [24], in the data set with PC-3 [25] and with HeLa was 0.3 µM throughout.
As to `O=c1c(-c2nn3c(-c4cn(C5CC5)c5cc(N6CCNCC6)c(F)cc5c4=O)nnc3s2)cn(C2CC2)c2cc(N3CCNCC3)c(F)cc12`, the IC50 in the data set with L1210 [17] amounted to 3.6 µM; in the data set with HL-60 [26] it was 0.54 µM.

The record behind these values is ChEMBL document CHEMBL5233217, “Modification of 7-piperazinylquinolone antibacterials to promising anticancer lead compounds: Synthesis and in vitro studies” (Eur J Med Chem, 2020).
